Experimental data: patent publication US11667630B2, “Nitrogen-containing 6-membered cyclic compound” (Asahi Kasei Pharma Corporation, priority 2017, dated 2023)

Tests used:
dog femur = test: Neo-osteogenesis action in dog femur; assay type: in vivo; conditions: beagle dogs, four weeks
Description: In order to investigate an osteogenesis-promoting action of the compounds of the present invention, for influence of administration of microspheres containing a test compound in the vicinity of the femur of dog, osteogenesis-promoting action was evaluated by measuring new bone formed after the administration.
Nine to eleven months old female beagle dogs ([…] LABES) were anesthetized by administration of a 1:1 mixture of ketamine hydrochloride (Ketalar 500 mg, Daiichi Sankyo Propharma Co., Ltd.) and xylazine (Selactar 2% Injection, Bayer Yakuhin, Ltd.) at a dose of about 0.5 mL/kg, and isoflurane listed in Japanese Pharmacopoeia (Elucaine, Mylan Pharmaceutical) was used for maintenance anesthesia, which was administered with an inhaler IMPAC6 (VetEquip Inc.). After hair of the femoral region of the right hind leg was shaved, and disinfection treatment was performed, 350 μL of a microsphere suspension obtained by suspending microspheres (prepared according to the method of Preparation Example 1 or 2) containing a test compound (compound of Example 23) in a CMC solution was transdermally administered around the periosteum of the femoral diaphysis by using a 1-mL injection syringe and a 21G injection needle. The doses of the test compound were 0.01, 0.1, 1.0, 10, and 100 μg/site, and the aforementioned microspheres were used in an amount corresponding to each dose. As a control group, a drug liquid obtained by suspending the microspheres not containing the test compound in 350 μL of the CMC solution alone was administered. Four weeks after the administration of the drug liquid, the animals were euthanized by bleeding under pentobarbital sodium (Somnopentyl) anesthesia. The femurs of both sides were extracted, immersed in a 10% neutral buffered formalin solution, and stored. The bone mineral content of the femur was measured by using Discovery X-ray bone density analyzer (produced by Toyo Medic). The test was performed with the groups each consisting of 4 dogs

human EP4 receptor [1] = biological target: T1, human EP4 receptor (Homo sapiens, UniProt P35408); test: Receptor binding test, [3H]PGE2 binding inhibition, EP4; parameters: purchased Merck Millipore HTS142M; conditions: [3H]PGE2 1.24 nmol/L, membrane fraction HTS142M, 25°C 60 minutes
T1 sequence (P35408 whole entry): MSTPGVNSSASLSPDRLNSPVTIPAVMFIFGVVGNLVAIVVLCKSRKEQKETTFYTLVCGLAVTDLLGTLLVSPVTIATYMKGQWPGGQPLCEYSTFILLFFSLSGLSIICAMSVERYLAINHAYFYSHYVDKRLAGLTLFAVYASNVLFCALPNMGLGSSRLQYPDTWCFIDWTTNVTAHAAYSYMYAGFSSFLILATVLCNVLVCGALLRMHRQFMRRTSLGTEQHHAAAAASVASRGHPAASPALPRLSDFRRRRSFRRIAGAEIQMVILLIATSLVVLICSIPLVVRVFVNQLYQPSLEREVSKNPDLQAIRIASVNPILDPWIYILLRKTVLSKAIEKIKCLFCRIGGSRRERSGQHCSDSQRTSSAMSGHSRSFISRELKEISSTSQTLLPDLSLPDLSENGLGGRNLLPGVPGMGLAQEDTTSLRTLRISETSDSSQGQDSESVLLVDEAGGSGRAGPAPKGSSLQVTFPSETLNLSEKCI
Description: (§1) In order to evaluate selectivity to each EP receptor subtype, [^3H]PGE2 binding-inhibition activities of test compounds for cell membranes on which human EP2, human EP3, and human EP4 receptors were stably expressed were measured.
(§2) As the membrane fractions of the prostaglandin E receptors EP2, EP3, and EP4, 10.0 μg protein/tube each of HTS185M, HTS092M, and HTS142M of Merck Millipore were used, respectively. Each membrane fraction was incubated with a reaction mixture (250 μL/tube) containing a test compound and [3H]PGE2 at 25° C. for 60 minutes. […] After the reaction, the membrane fraction was collected on filter paper by using a cell harvester, the filter paper was transferred to a measurement vial, and the measurement was performed on a liquid scintillation counter.
(§3) The nonspecific binding was determined as binding observed in the presence of excess amount (10 μM) of unlabeled PGE2. The measurement of the [3H]PGE2 binding-inhibiting activity of a test compound was performed by adding the test compound at various concentrations. The following buffers were used for the reaction.
Buffer for EP4: 50 mmol/L HEPES-NaOH (pH7.4) containing 5 mmol/L MgCl2, 1 mmol/L CaCl2), and 0.2% BSA

human EP2 receptor = biological target: T2, human EP2 receptor (Homo sapiens, UniProt P43116); test: Receptor binding test, [3H]PGE2 binding inhibition, EP2; conditions: [3H]PGE2 2.56 nmol/L, membrane fraction HTS185M, 25°C 60 minutes
T2 construct: purchased Merck Millipore HTS185M
T2 sequence (P43116 whole entry): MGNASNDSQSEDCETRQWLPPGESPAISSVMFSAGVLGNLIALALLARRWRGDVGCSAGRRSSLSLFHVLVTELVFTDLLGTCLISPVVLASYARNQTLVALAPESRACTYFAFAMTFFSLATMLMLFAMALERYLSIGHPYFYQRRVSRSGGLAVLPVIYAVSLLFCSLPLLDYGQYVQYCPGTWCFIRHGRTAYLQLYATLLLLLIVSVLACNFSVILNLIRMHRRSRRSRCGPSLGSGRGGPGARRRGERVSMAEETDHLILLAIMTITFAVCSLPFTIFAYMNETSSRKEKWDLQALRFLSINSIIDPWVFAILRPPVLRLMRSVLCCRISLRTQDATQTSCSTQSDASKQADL
Description: as §1, §2, §3
Buffer for EP2: 50 mmol/L HEPES-NaOH (pH 7.4) containing 5 mmol/L MgCl2, 1 mmol/L CaCl2), and 0.2% BSA

human EP4 receptor [2] = biological target: T1, human EP4 receptor; test: Measurement of EP4 agonist activity (cAMP production); assay type: cell-based; parameters: expressed in transfected cells; host or cells: HEK293; conditions: cAMP production in HEK293 cells stably expressing human EP4 receptor; average values where measured two or more times
Description: In order to investigate EP4 receptor agonist activity of the compounds of the present invention, production of cAMP was measured in HEK293 cells that were made to stably express the human EP4 receptor.
By using Refseq Database, prostaglandin E receptor was searched for. As a result, gene information of human EP4 (NM_000958) receptor was obtained. On the basis of this sequence information, the human EP4 receptor gene was cloned by PCR in a conventional manner using human cDNA as the template, and HEK293 cells that were made to stably express the human EP4 receptor were established. When cryopreserved cells of this strain were thawed and used, cells subcultured three times or more within a certain period of time (about 1 to 2 weeks) by using Dulbecco's Modified Eagle's Medium (Dulbecco's Modified Eagle's Medium may be henceforth abbreviated as DMEM) containing 10% FBS, 50 units each of penicillin and streptomycin were used. The subcultured cells were inoculated in wells of a poly-D-lysine-coated 96-well plate at a density of 2×10^4 to 2.5×10^4 cells/well, and cultured for one day. The medium in the wells was removed by suction, then DMEM (80 μL) was added to each well, and incubation was performed at 37° C. for 15 minutes. […] The reaction was allowed at 37° C. for 30 minutes, then the medium was removed by suction, Assay/Lysis Buffer (100 μL) contained in cAMP Screen Kit (produced by Applied Biosystems) was added to terminate the reaction. Then, the reaction mixture was incubated at 37° C. for 30 minutes to prepare a sample for quantification of cAMP, and the amount of cAMP in the sample was quantified according to the method indicated in cAMP Screen Kit. By non-linear regression of the compound concentration and the amount of cAMP, the concentration of the compound required for increasing cAMP to 50% of the maximum increase (EC50 value) was calculated by using the Kaleida Graph.

IC50 (human EP4 receptor [1]): 4.35 nM | IC50 (human EP2 receptor): > 1000 nM | EC50 (human EP4 receptor [2]): 0.033 nM
SMILES: O=C(O)c1ccc(CCN2C(=O)SCCN2CC[C@@H](O)Cc2cccc(C#Cc3ccsc3)c2)s1 [Example 23, (S)-5-(2-(4-(3-Hydroxy-4-(3-(thiophen-3-ylethynyl)phenyl)butyl)-2-oxo-1,3,4-thiadiazinan-3-yl)ethyl)thiophene-2-carboxylic acid]
Bone mineral content of femur 1/3 center region (g) Left femur (no administration of compound) (dog femur; microspheres containing compound of Example 23, 0.01 μg/site at right femur): 2.9 ± 0.4 g | Bone mineral content of femur 1/3 center region (g) Right femur (administered with compound) (dog femur; microspheres containing compound of Example 23, 0.01 μg/site): 2.9 ± 0.4 g | Bone mineral content of femur 1/3 center region (g) Left femur (no administration of compound) (dog femur; microspheres containing compound of Example 23, 0.1 μg/site at right femur): 2.6 ± 0.1 g | Bone mineral content of femur 1/3 center region (g) Right femur (administered with compound) (dog femur; microspheres containing compound of Example 23, 0.1 μg/site): 2.7 ± 0.2 g | Bone mineral content of femur 1/3 center region (g) Left femur (no administration of compound) (dog femur; microspheres containing compound of Example 23, 1.0 μg/site at right femur): 3.0 ± 0.1 g | Bone mineral content of femur 1/3 center region (g) Right femur (administered with compound) (dog femur; microspheres containing compound of Example 23, 1.0 μg/site): 4.1 ± 0.4 g | Bone mineral content of femur 1/3 center region (g) Left femur (no administration of compound) (dog femur; microspheres containing compound of Example 23, 10 μg/site at right femur): 2.8 ± 0.3 g | Bone mineral content of femur 1/3 center region (g) Right femur (administered with compound) (dog femur; microspheres containing compound of Example 23, 10 μg/site): 6.4 ± 0.7 g | Bone mineral content of femur 1/3 center region (g) Left femur (no administration of compound) (dog femur; microspheres containing compound of Example 23, 100 μg/site at right femur): 2.7 ± 0.4 g | Bone mineral content of femur 1/3 center region (g) Right femur (administered with compound) (dog femur; microspheres containing compound of Example 23, 100 μg/site): 8.2 ± 1.1 g
